Data reported in ChEMBL document CHEMBL4665834 (J Med Chem, 2020).
In brackets after ≈: the same amount, converted by molar mass.

Assays:
[1] = Protein binding in pooled dog plasma assessed as unbound fraction incubated for 6 hrs by LC-MS/MS analysis based equilibrium dialysis method; type: ADME, cell-free, Canis lupus familiaris
[2] = Solubility of compound in water using crystalline form of sample; type: physicochemical
[3] = target: Prostaglandin D2 receptor 2 (Homo sapiens, UniProt Q9Y5Y4); assay: Displacement of [3H]PGD2 from full-length recombinant human CRTH2 receptor expressed in CHOK1 cell membranes measured after 120 mins by scintillation counting method; set-up: species or system CHO-K1
Prostaglandin D2 receptor 2, sequence (Q9Y5Y4 whole entry): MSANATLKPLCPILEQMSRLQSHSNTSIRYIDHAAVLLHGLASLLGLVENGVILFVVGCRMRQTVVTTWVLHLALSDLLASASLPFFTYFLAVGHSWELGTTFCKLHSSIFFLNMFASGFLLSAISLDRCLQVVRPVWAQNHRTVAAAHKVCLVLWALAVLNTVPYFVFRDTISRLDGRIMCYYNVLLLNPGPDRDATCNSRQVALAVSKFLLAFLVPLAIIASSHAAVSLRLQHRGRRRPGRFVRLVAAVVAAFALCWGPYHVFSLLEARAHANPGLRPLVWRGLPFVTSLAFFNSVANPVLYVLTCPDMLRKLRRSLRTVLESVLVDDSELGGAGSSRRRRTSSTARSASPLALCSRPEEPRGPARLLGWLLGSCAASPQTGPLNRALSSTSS

[4] = Solubility of compound in 0.1 M HCl using crystalline form of sample; type: physicochemical
[5] = Oral bioavailability in Wistar rat at 3 mg/kg administered via gavage by LC-MS/MS analysis; type: ADME, organism-based; settings: in vivo
[6] = Oral bioavailability in Balb/c mouse at 3 mg/kg administered via gavage by LC-MS/MS analysis; type: ADME, organism-based; settings: in vivo
[7] = Oral bioavailability in Beagle dog at 1 mg/kg administered via gavage by LC-MS/MS analysis; type: ADME, organism-based, Canis lupus familiaris; settings: in vivo
Thromboxane A2 receptor = Thromboxane A2 receptor (Homo sapiens, UniProt P21731); assay: Antagonist activity at recombinant full-length human TP receptor expressed in HEK293 cells assessed as inhibition of U-44069-induced response measured after 30 mins by TR-FRET assay; type: cell-based
Thromboxane A2 receptor, sequence (P21731 whole entry): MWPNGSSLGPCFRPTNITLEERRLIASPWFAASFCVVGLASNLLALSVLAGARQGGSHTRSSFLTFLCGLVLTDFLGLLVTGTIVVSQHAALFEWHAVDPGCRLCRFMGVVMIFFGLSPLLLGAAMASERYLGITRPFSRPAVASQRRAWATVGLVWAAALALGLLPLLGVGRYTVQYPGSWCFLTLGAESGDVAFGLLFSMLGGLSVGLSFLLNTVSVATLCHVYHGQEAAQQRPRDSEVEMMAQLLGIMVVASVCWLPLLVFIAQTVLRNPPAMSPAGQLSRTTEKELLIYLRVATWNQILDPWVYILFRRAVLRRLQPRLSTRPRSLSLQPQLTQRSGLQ

Cytochrome P450 2C8 = Cytochrome P450 2C8 (Homo sapiens, UniProt P10632); assay: Inhibition of CYP2C8 in human liver microsomes using amodiaquine as substrate incubated for 15 mins in presence of NADPH generating system by LC-MS/MS analysis; type: ADME
Cytochrome P450 2C8, sequence (P10632 whole entry): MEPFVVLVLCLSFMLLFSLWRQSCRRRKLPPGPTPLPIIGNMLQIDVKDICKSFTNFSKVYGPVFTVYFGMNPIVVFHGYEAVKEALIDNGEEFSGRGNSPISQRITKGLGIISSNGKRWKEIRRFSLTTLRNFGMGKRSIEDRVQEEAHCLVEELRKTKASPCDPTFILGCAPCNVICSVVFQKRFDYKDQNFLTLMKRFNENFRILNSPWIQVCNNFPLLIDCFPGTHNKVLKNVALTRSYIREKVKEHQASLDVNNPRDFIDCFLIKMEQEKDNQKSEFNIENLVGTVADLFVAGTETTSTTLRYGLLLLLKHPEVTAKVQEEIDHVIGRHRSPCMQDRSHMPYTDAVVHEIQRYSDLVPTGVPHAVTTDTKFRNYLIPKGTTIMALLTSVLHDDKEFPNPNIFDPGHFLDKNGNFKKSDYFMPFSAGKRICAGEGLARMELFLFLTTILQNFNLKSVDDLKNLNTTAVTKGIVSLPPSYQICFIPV

Cytochrome P450 2D6 = Cytochrome P450 2D6 (Homo sapiens, UniProt P10635); assay: Inhibition of CYP2D6 in human liver microsomes using dextromethorphan as substrate incubated for 15 mins in presence of NADPH generating system by LC-MS/MS analysis; type: ADME
Cytochrome P450 2D6, sequence (P10635 whole entry, the tested form may be a part): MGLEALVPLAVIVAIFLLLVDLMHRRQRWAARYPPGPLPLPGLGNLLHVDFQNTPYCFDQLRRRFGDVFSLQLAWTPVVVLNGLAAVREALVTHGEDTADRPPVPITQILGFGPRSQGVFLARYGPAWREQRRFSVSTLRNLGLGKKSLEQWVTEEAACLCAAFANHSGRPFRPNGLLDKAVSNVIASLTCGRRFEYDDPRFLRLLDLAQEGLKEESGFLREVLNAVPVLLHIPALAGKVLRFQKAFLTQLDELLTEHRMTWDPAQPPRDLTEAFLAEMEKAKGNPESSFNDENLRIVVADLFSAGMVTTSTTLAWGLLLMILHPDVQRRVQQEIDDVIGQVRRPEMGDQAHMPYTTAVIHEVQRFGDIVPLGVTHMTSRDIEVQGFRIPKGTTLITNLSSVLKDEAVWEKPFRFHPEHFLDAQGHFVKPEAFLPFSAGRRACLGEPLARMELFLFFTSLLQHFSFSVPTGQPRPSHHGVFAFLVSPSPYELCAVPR

[8] = Clearance in Wistar rat at 0.3 to 1 mg/kg, iv administered as bolus dose or 15 mins infusion by LC-MS/MS analysis; type: ADME, organism-based; settings: Wistar, in vivo, dose 0.3-1 mg/kg
[9] = Drug metabolism in rat hepatocytes assessed as oxidation at the pyrrolidine ring at 1 uM measured after 1 to 4 hrs by LC-MS/MS analysis; type: ADME, cell-based, Hepatocyte; settings: time 1-4 hrs
[10] = Solubility of compound in phosphate buffer at pH 8 using crystalline form of sample; type: physicochemical
[11] = Volume of distribution at steady state in Beagle dog at 0.5 mg/kg, iv administered as 15 mins infusion or 1 mg/kg, po administered via gavage by LC-MS/MS analysis; type: ADME, organism-based, Canis lupus familiaris; settings: in vivo, read-out: Vdss
[12] = target: T1, Prostaglandin F2-alpha receptor (Mus musculus, UniProt P43117); assay: Antagonist activity at FPR in mouse NIH3T3 cells assessed as inhibition of PGF2alpha-induced cytokine induced neutrophil attracting chemokine production measured after 24 hrs by Bio-Rad assay; type: cell-based
T1 sequence (P43117 whole entry): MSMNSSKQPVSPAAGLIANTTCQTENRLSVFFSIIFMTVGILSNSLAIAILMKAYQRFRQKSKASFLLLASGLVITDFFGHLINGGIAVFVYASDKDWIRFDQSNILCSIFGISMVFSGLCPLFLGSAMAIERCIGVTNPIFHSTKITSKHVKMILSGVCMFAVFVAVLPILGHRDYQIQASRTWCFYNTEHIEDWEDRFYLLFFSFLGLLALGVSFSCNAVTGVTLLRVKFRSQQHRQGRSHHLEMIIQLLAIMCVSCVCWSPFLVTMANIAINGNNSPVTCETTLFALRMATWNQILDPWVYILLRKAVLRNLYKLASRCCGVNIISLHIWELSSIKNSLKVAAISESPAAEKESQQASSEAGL

[13] = Toxicity in Beagle dog up to 1 g/kg/day, po administered for 14 days; type: organism-based, Canis lupus familiaris; settings: in vivo, 1000 mg/kg, 336 h, time 14 day
[14] = Clearance in Wistar rat at 1 mg/kg, iv administered as bolus dose or 3 mg/kg, po administered via gavage by LC-MS/MS analysis; type: ADME, organism-based; settings: in vivo
Cytochrome P450 3A4 = Cytochrome P450 3A4 (Homo sapiens, UniProt P08684); assay: Inhibition of CYP3A4 in human liver microsomes using midazolam as substrate incubated for 10 mins in presence of NADPH generating system by LC-MS/MS analysis
Cytochrome P450 3A4, sequence (P08684 whole entry): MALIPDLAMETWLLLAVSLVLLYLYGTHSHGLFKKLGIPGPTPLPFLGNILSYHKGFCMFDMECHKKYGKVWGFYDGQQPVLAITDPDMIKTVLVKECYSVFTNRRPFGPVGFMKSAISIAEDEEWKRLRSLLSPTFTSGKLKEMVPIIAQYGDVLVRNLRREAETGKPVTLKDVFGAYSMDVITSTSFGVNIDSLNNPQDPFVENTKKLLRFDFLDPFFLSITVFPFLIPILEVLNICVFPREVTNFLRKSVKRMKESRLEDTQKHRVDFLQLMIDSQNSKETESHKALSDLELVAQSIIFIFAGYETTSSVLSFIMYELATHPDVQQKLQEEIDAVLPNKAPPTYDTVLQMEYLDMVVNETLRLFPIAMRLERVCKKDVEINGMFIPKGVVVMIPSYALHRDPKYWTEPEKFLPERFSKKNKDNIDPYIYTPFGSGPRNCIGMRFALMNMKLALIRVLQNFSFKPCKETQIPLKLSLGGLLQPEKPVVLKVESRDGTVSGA

[15] = target: Prostaglandin E2 receptor EP4 subtype (Homo sapiens, UniProt P35408); assay: Displacement of [3H]prostaglandin E2 from full-length recombinant human EP4 receptor expressed in HEK293 cell membranes measured after 120 mins by scintillation counting method
Prostaglandin E2 receptor EP4 subtype, sequence (P35408 whole entry): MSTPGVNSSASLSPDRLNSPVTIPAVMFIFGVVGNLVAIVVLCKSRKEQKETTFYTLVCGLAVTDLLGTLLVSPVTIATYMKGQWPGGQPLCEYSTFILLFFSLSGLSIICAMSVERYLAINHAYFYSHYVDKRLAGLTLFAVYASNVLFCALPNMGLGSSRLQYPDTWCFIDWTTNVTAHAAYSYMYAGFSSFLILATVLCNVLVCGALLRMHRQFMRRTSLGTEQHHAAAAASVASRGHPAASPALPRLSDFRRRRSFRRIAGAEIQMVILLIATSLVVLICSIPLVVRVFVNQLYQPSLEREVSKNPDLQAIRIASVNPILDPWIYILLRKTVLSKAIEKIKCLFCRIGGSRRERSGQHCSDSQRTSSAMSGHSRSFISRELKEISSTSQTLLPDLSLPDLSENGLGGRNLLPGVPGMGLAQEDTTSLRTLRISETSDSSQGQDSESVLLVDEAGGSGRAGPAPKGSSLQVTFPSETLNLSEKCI

[16] = Terminal half life in Balb/c mouse at 1 mg/kg, iv administered as bolus dose by LC-MS/MS analysis; type: ADME, organism-based; settings: in vivo, read-out: beta t1/2 (converted)
Cytochrome P450 1A2 = Cytochrome P450 1A2 (Homo sapiens, UniProt P05177); assay: Inhibition of CYP1A2 in human liver microsomes using phenacetin as substrate incubated for 15 mins in presence of NADPH generating system by LC-MS/MS analysis; type: ADME
Cytochrome P450 1A2, sequence (P05177 whole entry, the tested form may be a part): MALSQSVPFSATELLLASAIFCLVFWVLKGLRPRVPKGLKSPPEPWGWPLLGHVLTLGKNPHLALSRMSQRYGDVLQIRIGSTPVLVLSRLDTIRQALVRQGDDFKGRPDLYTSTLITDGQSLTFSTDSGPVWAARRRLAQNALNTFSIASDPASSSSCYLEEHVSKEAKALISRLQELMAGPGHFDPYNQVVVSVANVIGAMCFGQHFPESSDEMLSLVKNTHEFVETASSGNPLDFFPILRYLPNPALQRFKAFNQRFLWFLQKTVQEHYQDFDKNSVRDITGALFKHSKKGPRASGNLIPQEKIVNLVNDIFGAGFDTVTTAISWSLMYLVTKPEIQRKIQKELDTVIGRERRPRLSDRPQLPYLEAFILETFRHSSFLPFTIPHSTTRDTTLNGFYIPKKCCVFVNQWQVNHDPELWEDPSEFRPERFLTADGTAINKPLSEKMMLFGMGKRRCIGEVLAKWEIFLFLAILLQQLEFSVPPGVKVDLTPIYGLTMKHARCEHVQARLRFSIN

[17] = Clearance in Beagle dog at 0.5 mg/kg, iv administered as 15 mins infusion or 1 mg/kg, po administered via gavage by LC-MS/MS analysis; type: ADME, organism-based, Canis lupus familiaris; settings: in vivo
[18] = Drug metabolism in dog hepatocytes assessed as glucuronidation at 1 uM measured after 1 to 4 hrs by LC-MS/MS analysis; type: ADME, cell-based, Canis lupus familiaris, Hepatocyte; settings: time 1-4 hrs
[19] = target: T1, Prostaglandin F2-alpha receptor; assay: Antagonist activity at FPR in mouse NIH3T3 cells assessed as inhibition of PGF2alpha-induced MCP1 production measured after 24 hrs by Bio-Rad assay; type: cell-based
[20] = Volume of distribution at steady state in Balb/c mouse at 1 mg/kg, iv administered as bolus dose or 3 mg/kg, po administered via gavage by LC-MS/MS analysis; type: ADME, organism-based; settings: in vivo, read-out: Vdss
[21] = Drug metabolism in human hepatocytes assessed as oxidation at the pyrrolidine ring at 1 uM measured after 1 to 4 hrs by LC-MS/MS analysis; type: ADME, cell-based, Hepatocyte; settings: time 1-4 hrs
[22] = Maximum oral bioavailability in rat hepatocytes based well stirred liver model at 1 uM measured after 2 to 90 mins by LC-MS/MS analysis; type: ADME, Hepatocyte; settings: time 2-90 min, read-out: Fmax
[23] = Lipophilicity, log D of compound at pH 7.5 by HPLC analysis; settings: buffer
[24] = Drug metabolism in human hepatocytes assessed as formation of hydroxylated and ring-opened pyrrolidine derivative at 1 uM measured after 1 to 4 hrs by LC-MS/MS analysis; type: ADME, cell-based, Hepatocyte; settings: time 1-4 hrs
Prostacyclin receptor = Prostacyclin receptor (Homo sapiens, UniProt P43119); assay: Displacement of [3H]PGD2 from full-length recombinant human IP receptor expressed in HEK293 cell membranes measured after 60 mins by scintillation counting method
Prostacyclin receptor, sequence (P43119 whole entry): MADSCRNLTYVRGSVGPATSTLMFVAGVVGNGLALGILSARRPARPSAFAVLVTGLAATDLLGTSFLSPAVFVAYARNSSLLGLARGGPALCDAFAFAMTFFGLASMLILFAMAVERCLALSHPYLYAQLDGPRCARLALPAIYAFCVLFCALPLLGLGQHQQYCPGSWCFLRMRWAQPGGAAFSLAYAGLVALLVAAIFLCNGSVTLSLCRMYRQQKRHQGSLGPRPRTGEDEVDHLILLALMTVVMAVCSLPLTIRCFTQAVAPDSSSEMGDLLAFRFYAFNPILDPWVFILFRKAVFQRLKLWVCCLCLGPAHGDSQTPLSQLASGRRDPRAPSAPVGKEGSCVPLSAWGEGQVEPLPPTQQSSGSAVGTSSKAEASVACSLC

[25] = Protein binding in pooled rat plasma assessed as unbound fraction incubated for 6 hrs by LC-MS/MS analysis based equilibrium dialysis method; type: ADME, cell-free
[26] = Toxicity in Wistar rat up to 300 mg/kg/day, po administered for 14 days; type: organism-based; settings: in vivo, 336 h, time 14 day
[27] = Drug metabolism in rat hepatocytes assessed as formation of hydroxylated and ring-opened pyrrolidine derivative at 1 uM measured after 1 to 4 hrs by LC-MS/MS analysis; type: ADME, cell-based, Hepatocyte; settings: time 1-4 hrs
[28] = target: Prostaglandin F2-alpha receptor (Rattus norvegicus, UniProt P43118); assay: Antagonist activity at rat FPR stably expressed in CHO cells assessed as inhibition of PGF2alpha-induced calcium flux preincubated for 10 mins followed by PGF2alpha stimulation and measured for 120 secs by fluo-8 AM dye based fluorescence assay; type: cell-based
Prostaglandin F2-alpha receptor (Rattus norvegicus, UniProt P43118), sequence (P43118 whole entry): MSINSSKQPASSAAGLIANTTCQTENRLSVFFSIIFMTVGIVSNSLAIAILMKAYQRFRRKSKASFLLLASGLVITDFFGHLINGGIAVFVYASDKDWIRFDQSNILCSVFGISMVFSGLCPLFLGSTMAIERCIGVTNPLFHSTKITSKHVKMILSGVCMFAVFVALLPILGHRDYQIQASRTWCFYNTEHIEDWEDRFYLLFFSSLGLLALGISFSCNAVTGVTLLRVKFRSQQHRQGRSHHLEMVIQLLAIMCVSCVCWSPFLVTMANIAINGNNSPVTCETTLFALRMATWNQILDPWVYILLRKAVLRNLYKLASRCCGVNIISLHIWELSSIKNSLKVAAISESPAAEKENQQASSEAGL

Cytochrome P450 2C9 = Cytochrome P450 2C9 (Homo sapiens, UniProt P11712); assay: Inhibition of CYP2C9 in human liver microsomes using diclofenac as substrate incubated for 15 mins in presence of NADPH generating system by LC-MS/MS analysis; type: ADME
Cytochrome P450 2C9, sequence (P11712 whole entry): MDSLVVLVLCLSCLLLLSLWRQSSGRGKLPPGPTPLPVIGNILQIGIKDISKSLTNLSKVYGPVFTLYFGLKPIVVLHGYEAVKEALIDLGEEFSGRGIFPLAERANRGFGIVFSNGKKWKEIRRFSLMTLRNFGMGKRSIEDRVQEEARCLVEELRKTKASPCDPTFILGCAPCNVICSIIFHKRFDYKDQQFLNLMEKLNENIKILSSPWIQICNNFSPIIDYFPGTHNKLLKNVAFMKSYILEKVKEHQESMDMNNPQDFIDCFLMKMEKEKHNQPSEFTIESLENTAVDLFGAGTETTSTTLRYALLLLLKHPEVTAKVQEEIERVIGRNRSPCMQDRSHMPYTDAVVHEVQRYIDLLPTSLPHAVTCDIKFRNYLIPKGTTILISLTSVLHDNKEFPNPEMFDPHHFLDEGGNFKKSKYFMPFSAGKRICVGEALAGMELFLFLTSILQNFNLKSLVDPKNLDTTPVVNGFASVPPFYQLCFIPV

[29] = Volume of distribution at steady state in Wistar rat at 1 mg/kg, iv administered as bolus dose or 3 mg/kg, po administered via gavage by LC-MS/MS analysis; type: ADME, organism-based; settings: in vivo, read-out: Vdss
[30] = Terminal half life in Beagle dog at 0.5 mg/kg, iv administered as 15 mins infusion by LC-MS/MS analysis; type: ADME, organism-based, Canis lupus familiaris; settings: in vivo, read-out: beta t1/2 (converted)

Question: With `Cc1c(N2CCCC2)nc2ccc(Br)cc2c1C(=O)NC[C@H](CCC(=O)O)c1ccccc1Cl` [BAY-6672] as the compound, how does the fraction unbound at 6 h [1] read?
Answer: The fraction unbound at 6 h was under 0.01.

Question: What about the solubility [2] of the same compound?
Answer: The solubility was under 1 µg/mL.

Question: And the IC50 [3]?
Answer: Its IC50 is over 10 µM.

Question: And the solubility [4]?
Answer: The solubility was 440 µg/mL (≈ 808 µM).

Question: What about the bioavailability [5] of the same compound?
Answer: The bioavailability was 91%.

Question: What about the bioavailability [6] of the same compound?
Answer: Its bioavailability is 94%.

Question: And the bioavailability [7]?
Answer: The bioavailability was 45%.

Question: And the IC50 (Thromboxane A2 receptor)?
Answer: Its IC50 is 2.2 µM.

Question: What about the IC50 (Cytochrome P450 2C8) of the same compound?
Answer: The IC50 was over 20 µM.

Question: What about the IC50 (Cytochrome P450 2D6) of the same compound?
Answer: The IC50 was over 20 µM.

Question: And the clearance [8]?
Answer: Its clearance is 11.7 mL/min/kg.

Question: And the Drug metabolism [9]?
Answer: Its Drug metabolism is “Metabolite_Detected”.

Question: And the solubility thermodynamic [10]?
Answer: Its solubility thermodynamic is 290 µg/mL (≈ 532 µM).

Question: And the Vd [11]?
Answer: The Vd was 1.8 L/kg.

Question: What about the IC50 [12] of the same compound?
Answer: Its IC50 is 0.012 µM.

Question: What about the Activity [13] of the same compound?
Answer: Its Activity is “Non-Toxic”.

Question: What about the clearance [14] of the same compound?
Answer: The clearance was 11.7 mL/min/kg.

Question: And the IC50 (Cytochrome P450 3A4)?
Answer: The IC50 was over 20 µM.

Question: What about the IC50 [15] of the same compound?
Answer: Its IC50 is over 9.4 µM.

Question: And the half-life [16]?
Answer: The half-life was 3.4 h.

Question: What about the IC50 (Cytochrome P450 1A2) of the same compound?
Answer: The IC50 was over 20 µM.

Question: And the clearance [17]?
Answer: The clearance was 13.3 mL/min/kg.

Question: What about the Drug metabolism [18] of the same compound?
Answer: Its Drug metabolism is “Metabolite_Detected”.

Question: What about the IC50 [19] of the same compound?
Answer: The IC50 was 0.018 µM.

Question: What about the Vd [20] of the same compound?
Answer: Its Vd is 2 L/kg.

Question: And the Drug metabolism [21]?
Answer: Its Drug metabolism is “Metabolite_Detected”.

Question: What about the Fh at 1 µM [22] of the same compound?
Answer: The Fh at 1 µM was 67%.

Question: What about the logD [23] of the same compound?
Answer: The logD was 2.3.

Question: And the Drug metabolism [24]?
Answer: Its Drug metabolism is “Metabolite_Detected”.

Question: And the IC50 (Prostacyclin receptor)?
Answer: Its IC50 is over 10 µM.

Question: What about the fraction unbound at 6 h [25] of the same compound?
Answer: The fraction unbound at 6 h was under 0.01.

Question: What about the Activity [26] of the same compound?
Answer: Its Activity is “Non-Toxic”.

Question: What about the Drug metabolism [27] of the same compound?
Answer: Its Drug metabolism is “Metabolite_Detected”.

Question: What about the IC50 [28] of the same compound?
Answer: The IC50 was 0.011 µM.

Question: What about the IC50 (Cytochrome P450 2C9) of the same compound?
Answer: The IC50 was over 20 µM.

Question: And the Vd [29]?
Answer: Its Vd is 2.1 L/kg.

Question: What about the half-life [30] of the same compound?
Answer: The half-life was 14 h.
